Data published in the supplement of paper PMC11061612.

What was measured:
[1] = test system: LU-139 (Small Cell Lung Carcinoma); assay: Bliss excess, mean over the matrix (fraction); higher = more synergy
Summary of the method: (§1)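 Bliss excess equals the observed combination effect minus the expected value EA + EB − EA·EB, where EA and EB are the effects of each agent alone. Combination Emax is the second-highest inhibition within the matrix. Inhibition was scaled from CellTiter-Glo 2.0 luminescence, with 0 set by vehicle wells and 1 by blank wells, after 72 hours of two-drug dosing of cells plated in 1536-well plates.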

[2] = test system: HO-1-u-1 (Oral Cavity Carcinoma); assay: as above
Summary of the method: as §1

[3] = test system: OC-314 (Ovarian Carcinoma); assay: as above
Summary of the method: as §1

[4] = test system: OVCAR-8 (Ovarian Carcinoma); assay: as above
Summary of the method: as §1

[5] = test system: 8305C (Thyroid Gland Carcinoma); assay: combination Emax (second highest fraction inhibited in the dose matrix, 72 h); higher = more inhibition; extreme values may be limits of the assay
Summary of the method: as §1

[6] = test system: RKO (Colorectal Carcinoma); assay: as above
Summary of the method: as §1

[7] = test system: TE-4 (Esophageal Squamous Cell Carcinoma); assay: as above
Summary of the method: as §1

[8] = test system: CAL-51 (Breast Carcinoma); assay: as above
Summary of the method: as §1

HMV-II (Melanoma) = assay: as above
Summary of the method: as §1

[9] = test system: MHH-PREB-1 (B-Cell Non-Hodgkin's Lymphoma); assay: as above
Summary of the method: as §1

[10] = test system: NCI-H69 (Small Cell Lung Carcinoma); assay: as above
Summary of the method: as §1

[11] = test system: PCI-30 (Head and Neck Carcinoma); assay: as above
Summary of the method: as §1

[12] = test system: SW1116 (Colorectal Carcinoma); assay: as above
Summary of the method: as §1

[13] = test system: OC-314 (Ovarian Carcinoma); assay: as above
Summary of the method: as §1

[14] = test system: OVCAR-8 (Ovarian Carcinoma); assay: as above
Summary of the method: as §1

[15] = test system: HARA (Squamous Cell Lung Carcinoma); assay: as above
Summary of the method: as §1

[16] = test system: NCI-H747 (Colorectal Carcinoma); assay: as above
Summary of the method: as §1

Mewo (Melanoma) = assay: as above
Summary of the method: as §1

COLO-829 (Melanoma) = assay: as above
Summary of the method: as §1

[17] = test system: LoVo (Colorectal Carcinoma); assay: as above
Summary of the method: as §1

SMILES	Bliss excess [1]	Bliss excess [2]	Bliss excess [3]	Bliss excess [4]	combination Emax [5]	combination Emax [6]	combination Emax [7]	combination Emax [8]	combination Emax (HMV-II (Melanoma))	combination Emax [9]	combination Emax [10]	combination Emax [11]	combination Emax [12]	combination Emax [13]	combination Emax [14]	combination Emax [15]	combination Emax [16]	combination Emax (Mewo (Melanoma))	combination Emax (COLO-829 (Melanoma))	combination Emax [17]
Cc1c2c(nn1C)CSCc1cc(n(C)n1)CSc1cc(c3ccccc3c1)OCCCc1c(C(=O)O)n(C)c3c-2c(Cl)ccc13 [AZD5991] + C[C@@H](Nc1cc(F)cc(F)c1)c1cc(C(=O)N(C)C)cc2c(=O)cc(N3CCOCC3)oc12 [AZD8186] (first compound max 1 µM, 7x7, partner max 3 µM)	-0.0439	-0.014	-0.0029	0.0164	0.588	0.277	0.377	0.336	0.192	0.214	0.305	0.264	0.17	0.297	0.268	0.412	0.517	0.314	0.17	0.732
CC(=O)c1c(C)c2cnc(Nc3ccc(N4CCNCC4)cn3)nc2n(C2CCCC2)c1=O [Palbociclib] + Cn1cnc2c(F)c(Nc3ccc(Br)cc3Cl)c(C(=O)NOCCO)cc21 [Selumetinib] (first compound max 10 µM, 7x7, partner max 10 µM)	0.0109	0.0772	0.0141	-0.0412	0.469	0.715	0.403	0.289	0.809	0.445	0.487	0.223	0.396	0.478	0.146	0.499	0.811	0.485	0.614	0.679
CC(=O)c1c(C)c2cnc(Nc3ccc(N4CCNCC4)cn3)nc2n(C2CCCC2)c1=O [Palbociclib] + Cc1c2c(nn1C)CSCc1cc(n(C)n1)CSc1cc(c3ccccc3c1)OCCCc1c(C(=O)O)n(C)c3c-2c(Cl)ccc13 [AZD5991] (first compound max 10 µM, 7x7, partner max 1 µM)	0.0198	-0.0069	-0.023	-0.0281	0.666	0.472	0.966	0.357	0.625	0.511	0.471	0.276	0.164	0.334	0.129	0.559	0.608	0.569	0.388	0.557
CC1(C)CCC(CN2CCN(c3ccc(C(=O)NS(=O)(=O)c4ccc(NCC5CCOCC5)c([N+](=O)[O-])c4)c(Oc4cnc5[nH]ccc5c4)c3)CC2)=C(c2ccc(Cl)cc2)C1 [Venetoclax] + C1CN(CCC1(C(=O)N[C@@H](CCO)C2=CC=C(C=C2)Cl)N)C3=NC=NC4=C3C=CN4 [Capivasertib] (first compound max 1 µM, 7x7, partner max 3 µM)	-0.0467	-0.052	-0.0017	-0.0504	0.387	0.36	0.564	0.487	0.236	0.176	0.802	0.252	0.0942	0.316	0.184	0.645	0.441	0.533	0.16	0.454
Cn1cnc2c(F)c(Nc3ccc(Br)cc3Cl)c(C(=O)NOCCO)cc21 [Selumetinib] + C=CCn1c(=O)c2cnc(Nc3ccc(N4CCN(C)CC4)cc3)nc2n1-c1cccc(C(C)(C)O)n1 [AZD1775] (first compound max 10 µM, partner max 1 µM)	0.0238	0.0454	-0.027	0.0202	0.481	0.904	0.642	0.893	0.812	0.777	0.133	0.173	0.444	0.452	0.872	0.919	0.793	0.47	0.481	0.723
CC1(C)CCC(CN2CCN(c3ccc(C(=O)NS(=O)(=O)c4ccc(NCC5CCOCC5)c([N+](=O)[O-])c4)c(Oc4cnc5[nH]ccc5c4)c3)CC2)=C(c2ccc(Cl)cc2)C1 [Venetoclax] + C=CCn1c(=O)c2cnc(Nc3ccc(N4CCN(C)CC4)cc3)nc2n1-c1cccc(C(C)(C)O)n1 [AZD1775] (first compound max 1 µM, partner max 1 µM)	0.0207	-0.0256	0.1	-0.0326	0.639	0.88	0.555	0.851	0.484	0.846	0.425	0.736	0.23	0.933	0.798	0.899	0.479	0.621	0.235	0.741
COc1nnc2ccc(N3CCC(c4ccc(OCCN5CCN(C)C(=O)[C@H]5C)cc4)CC3)nn12 [AZD5153] + C[C@@H]1COCCN1C2=NC(=NC(=C2)C3(CC3)[S@](=N)(=O)C)C4=C5C=CNC5=NC=C4 [AZD6738] (first compound max 1 µM, 7x7, partner max 10 µM)	0.01	-0.0146	0.0111	0.0047	0.674	0.923	0.898	0.993	0.712	0.893	0.735	0.404	0.432	0.981	0.924	0.832	0.809	0.604	0.259	0.814
